20 molecules from patent US8236850B2, “Dimeric derivatives of artemisinin and application in anticancer therapy” (Pierre Fabre Medicament, priority 2007, dated 2012) can be followed below.

As a reminder, the IC50 is the concentration needed to halve the response being measured. Higher therefore signals weaker potency.

The subject of one assay is A549 cell line (lung). Description: Cytotoxic activity: inhibition of cell proliferation, residual ATP by luminescence (ATPLite). It counts as cell-based. The following applies: Homo sapiens, 72 hours of incubation. Here is the method: (§1) Cytotoxic activity of the compounds prepared according to the invention was evaluated by measuring inhibition of cell proliferation of tumoral cell lines of human origin, such as the A549 cell line (lung) and the Namalwa cell line (lymphoma). This activity is expressed by IC50, the concentration of the tested product capable of inhibiting cell proliferation by 50%. The method used is a measurement of residual ATP by luminescence after 72 hours of incubation by using the “ATPLite” kit marketed by Perkin Elmer.
(Cellular ATP, detected with luciferase, serves as a proxy for viable cell number.)

Assay [1] relates to Namalwa cell line (lymphoma). The assay is described as above. As to conditions: Homo sapiens, 72 hours of incubation. It counts as cell-based. Here is the method:
as §1

Take `C[C@@H]1CC[C@H]2C(CSCC3=C(C(F)(F)F)O[C@@H]4O[C@@]5(C)CCC6[C@H](C)CC[C@@H]3[C@]64OO5)=C(C(F)(F)F)O[C@@H]3OC4(C)CCC1[C@]32OO4` (stereo partly shown) [Compound 1]: the IC50 with A549 cell line (lung) was found to be 200 nM; in assay [1], 290 nM.
On the same counts, the results for `C[C@@H]1CC[C@H]2C(C[S+]([O-])CC3=C(C(F)(F)F)O[C@@H]4O[C@@]5(C)CCC6[C@H](C)CC[C@@H]3[C@]64OO5)=C(C(F)(F)F)O[C@@H]3OC4(C)CCC1[C@]32OO4` (stereo partly shown) [Compound 2] are 850 nM and 1000 nM.
On the same counts, the results for `C[C@@H]1CC[C@H]2C(CS(=O)(=O)CC3=C(C(F)(F)F)O[C@@H]4O[C@@]5(C)CCC6[C@H](C)CC[C@@H]3[C@]64OO5)=C(C(F)(F)F)O[C@@H]3OC4(C)CCC1[C@]32OO4` (stereo partly shown) [Compound 3] are 1200 nM and 2300 nM.
On the same counts, the results for `C[C@@H]1CC[C@H]2C(CSSCC3=C(C(F)(F)F)O[C@@H]4O[C@@]5(C)CCC6[C@H](C)CC[C@@H]3[C@]64OO5)=C(C(F)(F)F)O[C@@H]3OC4(C)CCC1[C@]32OO4` (stereo partly shown) [Compound 4] are 84 nM and 64 nM.
`C[C@@H]1CC[C@H]2C(COCCSSCCOCC3=C(C(F)(F)F)O[C@@H]4O[C@@]5(C)CCC6[C@H](C)CC[C@@H]3[C@]64OO5)=C(C(F)(F)F)O[C@@H]3OC4(C)CCC1[C@]32OO4` (stereo partly shown) [Compound 5]: the results for the IC50 (in the assay on A549 cell line (lung); in assay [1]) were 90 nM and 50 nM, respectively.
The corresponding values for `C[C@@H]1CC[C@H]2C(CSCCSCC3=C(C(F)(F)F)O[C@@H]4O[C@@]5(C)CCC6[C@H](C)CC[C@@H]3[C@]64OO5)=C(C(F)(F)F)O[C@@H]3OC4(C)CCC1[C@]32OO4` (stereo partly shown) [Compound 6] are 63 nM and 27 nM.
The corresponding values for `C[C@@H]1CC[C@H]2C(CSCCCSCC3=C(C(F)(F)F)O[C@@H]4O[C@@]5(C)CCC6[C@H](C)CC[C@@H]3[C@]64OO5)=C(C(F)(F)F)O[C@@H]3OC4(C)CCC1[C@]32OO4` (stereo partly shown) [Compound 7] are 150 nM and 100 nM.
`C[C@@H]1CC[C@H]2C(CSCCCCSCC3=C(C(F)(F)F)O[C@@H]4O[C@@]5(C)CCC6[C@H](C)CC[C@@H]3[C@]64OO5)=C(C(F)(F)F)O[C@@H]3OC4(C)CCC1[C@]32OO4` (stereo partly shown) [Compound 8]: the IC50 with A549 cell line (lung) was determined as 270 nM; in assay [1], 64 nM.
On the same counts, the results for `C[C@@H]1CC[C@H]2C(COCCSCC3=C(C(F)(F)F)O[C@@H]4O[C@@]5(C)CCC6[C@H](C)CC[C@@H]3[C@]64OO5)=C(C(F)(F)F)O[C@@H]3OC4(C)CCC1[C@]32OO4` (stereo partly shown) [Compound 9] are 31 nM and 24 nM.
Take `C[C@@H]1CC[C@H]2C(CN(C)CCN(C)CC3=C(C(F)(F)F)O[C@@H]4O[C@@]5(C)CCC6[C@H](C)CC[C@@H]3[C@]64OO5)=C(C(F)(F)F)O[C@@H]3OC4(C)CCC1[C@]32OO4` (stereo partly shown) [Compound 11]: the IC50 worked out at 1100 nM in the assay with A549 cell line (lung) and 790 nM in assay [1].
The corresponding values for `C[C@@H]1CC[C@H]2C(CN(C)CCCN(C)CC3=C(C(F)(F)F)O[C@@H]4O[C@@]5(C)CCC6[C@H](C)CC[C@@H]3[C@]64OO5)=C(C(F)(F)F)O[C@@H]3OC4(C)CCC1[C@]32OO4` (stereo partly shown) [Compound 12] are 690 nM and 390 nM.
The corresponding values for `C[C@@H]1CC[C@H]2C(COC(=O)c3cccc(C(=O)OCC4=C(C(F)(F)F)O[C@@H]5O[C@@]6(C)CC[C@H]7[C@H](C)CC[C@@H]4[C@@]57OO6)n3)=C(C(F)(F)F)O[C@@H]3O[C@@]4(C)CC[C@@H]1[C@]32OO4` [Compound 25] are 140 nM and 62 nM.
On the same counts, the results for `C[C@@H]1CC[C@H]2C(COC(=O)c3cccc(C(=O)OCC4=C(C(F)(F)F)O[C@@H]5O[C@@]6(C)CC[C@H]7[C@H](C)CC[C@@H]4[C@@]57OO6)c3)=C(C(F)(F)F)O[C@@H]3O[C@@]4(C)CC[C@@H]1[C@]32OO4` [Compound 26] are 71 nM and 54 nM.
Take `C[C@@H]1CC[C@H]2C(COC(=O)c3ccc(C(=O)OCC4=C(C(F)(F)F)O[C@@H]5O[C@@]6(C)CC[C@H]7[C@H](C)CC[C@@H]4[C@@]57OO6)s3)=C(C(F)(F)F)O[C@@H]3O[C@@]4(C)CC[C@@H]1[C@]32OO4` [Compound 27]: the IC50 in the assay on A549 cell line (lung) is 210 nM; in assay [1], 130 nM.
`C[C@@H]1CC[C@H]2C(CNC(=O)c3cccc(C(=O)NCC4=C(C(F)(F)F)O[C@@H]5O[C@@]6(C)CC[C@H]7[C@H](C)CC[C@@H]4[C@@]57OO6)n3)=C(C(F)(F)F)O[C@@H]3O[C@@]4(C)CC[C@@H]1[C@]32OO4` [Compound 30]: the IC50 is 170 nM in the assay on A549 cell line (lung) and 72 nM in assay [1].
With `C[C@@H]1CC[C@H]2C(CNC(=O)c3ccc(C(=O)NCC4=C(C(F)(F)F)O[C@@H]5O[C@@]6(C)CC[C@H]7[C@H](C)CC[C@@H]4[C@@]57OO6)s3)=C(C(F)(F)F)O[C@@H]3O[C@@]4(C)CC[C@@H]1[C@]32OO4` [Compound 31], the IC50 is 220 nM in the assay with A549 cell line (lung) and 88 nM in assay [1].
The corresponding values for `C[C@@H]1CC[C@H]2C(COCc3cnnn3CC3=C(C(F)(F)F)O[C@@H]4O[C@@]5(C)CC[C@@]6(C)[C@H](C)CC[C@@H]3[C@@]46OO5)=C(C(F)(F)F)O[C@@H]3O[C@@]4(C)CC[C@@H]1[C@]32OO4` [Compound 32] are 270 nM and 130 nM.
The corresponding values for `C[C@@H]1CC[C@H]2C(COCc3cn(CC4=C(C(F)(F)F)O[C@@H]5O[C@]6(C)CC[C@H]7[C@H](C)CC[C@@H]4[C@@]57OO6)nn3)=C(C(F)(F)F)O[C@@H]3O[C@@]4(C)CC[C@@H]1[C@]32OO4` [Compound 33] are 110 nM and 30 nM.
The corresponding values for `C[C@@H]1CC[C@H]2C(COCc3cccc(COCC4=C(C(F)(F)F)O[C@@H]5O[C@@]6(C)CC[C@H]7[C@H](C)CC[C@@H]4[C@@]57OO6)n3)=C(C(F)(F)F)O[C@@H]3O[C@@]4(C)CC[C@@H]1[C@]32OO4` [Compound 37] are 74 nM and 30 nM.
For the molecule `C[C@@H]1CC[C@H]2C(COCC#CC(O)C3=C(C(F)(F)F)O[C@@H]4O[C@@]5(C)CC[C@H]6[C@H](C)CC[C@@H]3[C@@]46OO5)=C(C(F)(F)F)O[C@@H]3O[C@@]4(C)CC[C@@H]1[C@]32OO4` (stereo partly shown) [Compound 39], the figures for the IC50 (with A549 cell line (lung); in assay [1]) were 240 nM and 160 nM, respectively.
